# Assays:
# NCI-H23 = assay: NCI-60 screening (SRB); format: cell-based, human; conditions: five-dose
# RPMI-8226 = assay: NCI-60 screening (SRB); format: cell-based, human; conditions: five-dose
# A549/ATCC = assay: NCI-60 screening (SRB); format: cell-based, human; conditions: five-dose
# LOX IMVI = assay: NCI-60 screening (SRB); format: cell-based, human; conditions: LOX IMVI, five-dose
# MOLT-4 = assay: NCI-60 screening (SRB); format: cell-based, human; conditions: five-dose
# Ovarian cancer = assay: NCI-60 screening (SRB), subpanel; format: cell-based
# Source text: (§1) The experimental data allow the assessment of the cytostatic effect, indicated by growth inhibition values ranging between 0 and 100, as well as of the cytotoxic effect, indicated by negative values.
# (§2) The mean GI50 (molar concentration of the compound that inhibits 50% net cell growth), TGI (molar concentration of the compound leading to the total inhibition), and LC50 (molar concentration of the compound leading to 50% net cell death (presented in negative logarithm)) values across each cell line are shown in Table 2.
# (§3) The selectivity index (SI), calculated as the ratio between the full panel MG_MID60 (μM) of compounds 4, 6, and 9 by their respective subpanels MG_MID of the cell line (μM), was introduced as a quantification tool for the selectivity of each compound in terms of anticancer effect (Table 3).
# (§4) Primary anticancer assays were performed according to the NCI protocol, as described elsewhere (see e.g., http://dtp.nci.nih.gov accessed on 1 November 2018). The compounds were added at a single concentration, and the cell cultures were incubated for 48 h. The end point determinations were made with a protein-binding dye, sulforhodamine B (SRB). […] The percentage of growth was evaluated spectrophotometrically versus controls not treated with test agents after 48 h exposure and using SRB protein assay to estimate cell viability or growth. Three antitumor activity dose-response parameters were calculated for each cell line. Furthermore, mean graph midpoints (MG_MID) were calculated for each of the parameters, giving an average activity parameter over all cell lines for the tested compound. For the MG_MID calculation, insensitive cell lines were included with the highest concentration tested.
# Leukemia = assay: NCI-60 screening (SRB), subpanel; format: cell-based
# Source text: as §1, §2, §3, §4
# NSC lung cancer = assay: NCI-60 screening (SRB), subpanel; format: cell-based
# Source text: as §1, §2, §3, §4
# Melanoma = assay: NCI-60 screening (SRB), subpanel; format: cell-based
# Source text: as §1, §2, §3, §4
# Prostate cancer = assay: NCI-60 screening (SRB), subpanel; format: cell-based
# Source text: as §1, §2, §3, §4
# Colon Cancer = assay: NCI-60 screening (SRB), subpanel; format: cell-based
# Source text: as §1, §2, §3, §4
# Breast cancer = assay: NCI-60 screening (SRB), subpanel; format: cell-based
# Source text: as §1, §2, §3, §4
# Renal Cancer = assay: NCI-60 screening (SRB), subpanel; format: cell-based
# Source text: as §1, §2, §3, §4
# HCT-15 = assay: NCI-60 screening (SRB); format: cell-based, human; conditions: five-dose
# IGROV1 = assay: NCI-60 screening (SRB); format: cell-based, human
# SF-295 = assay: NCI-60 screening (SRB); format: cell-based, human; conditions: five-dose
# UO-31 = assay: NCI-60 screening (SRB); format: cell-based, human; conditions: five-dose
# SNB-19 = assay: NCI-60 screening (SRB); format: cell-based, human; conditions: five-dose
# HL-60(TB) = assay: NCI-60 screening (SRB); format: cell-based, human
# SK-OV-3 = assay: NCI-60 screening (SRB); format: cell-based, human; conditions: five-dose
# HOP-62 = assay: NCI-60 screening (SRB); format: cell-based, human; conditions: five-dose
# UACC-257 = assay: NCI-60 screening (SRB); format: cell-based, human; conditions: five-dose
# SK-MEL-2 = assay: NCI-60 screening (SRB); format: cell-based, human; conditions: five-dose
# PC-3 = assay: NCI-60 screening (SRB); format: cell-based, human; conditions: five-dose
# HCT-116 = assay: NCI-60 screening (SRB); format: cell-based, human; conditions: five-dose
# [1] = Homo sapiens, read-out: LC50 (the source's name)
# [2] = HL-60(TB) (Leukemia), 1 dose 10 µM
smiles,measurement,setting,value
"CCN1CCN(C(=O)[C@]23CC[C@@H](C)[C@H](C)[C@H]2C2=CC[C@@H]4[C@@]5(C)C/C(=C/c6cccnc6)C(=O)C(C)(C)[C@@H]5CC[C@@]4(C)[C@]2(C)CC3)CC1 [Compound 9, N-(2-{3-Pyridinylidene}-3-oxoursan-12-en-28-oyl)-ethylpiperazine]",GI50,NCI-H23; Homo sapiens,2.13 µM
same,CC50,NCI-H23; [1],31.8 µM
same,TGI,NCI-H23,5.91 µM
same,GI50,RPMI-8226; Homo sapiens,2.45 µM
same,CC50,RPMI-8226; [1],> 100 µM
same,TGI,RPMI-8226,7.38 µM
same,GI50,A549/ATCC; Homo sapiens,3.15 µM
same,CC50,A549/ATCC; [1],> 100 µM
same,TGI,A549/ATCC,16.8 µM
same,GI50,LOX IMVI; Homo sapiens,1.58 µM
same,CC50,LOX IMVI; [1],5.91 µM
same,TGI,LOX IMVI,3.06 µM
same,GI50,MOLT-4; Homo sapiens,2.63 µM
same,CC50,MOLT-4; [1],> 100 µM
same,TGI,MOLT-4,7.44 µM
same,GI50,"Ovarian cancer; Homo sapiens, Ovarian cancer subpanel, five-dose, read-out: GI50 MG_MID",2.04 µM
same,CC50,"Ovarian cancer; Homo sapiens, Ovarian cancer subpanel, five-dose, read-out: LC50 MG_MID",36.2 µM
same,SI (TGI),"Ovarian cancer; Ovarian Cancer, MG_MID60/subpanel MG_MID",1.02
same,TGI MG_MID,"Ovarian cancer; Ovarian cancer subpanel, five-dose",5.16 µM
same,CC50,"Leukemia; Homo sapiens, Leukemia subpanel, five-dose, read-out: LC50 MG_MID",> 100 µM
same,TGI MG_MID,"Leukemia; Leukemia subpanel, five-dose",7.09 µM
same,SI (TGI),"Leukemia; Leukemia, MG_MID60/subpanel MG_MID",0.75
same,GI50,"NSC lung cancer; Homo sapiens, NSC lung cancer subpanel, five-dose, read-out: GI50 MG_MID",2.12 µM
same,CC50,"NSC lung cancer; Homo sapiens, NSC lung cancer subpanel, five-dose, read-out: LC50 MG_MID",47.1 µM
same,TGI MG_MID,"NSC lung cancer; NSC lung cancer subpanel, five-dose",6.81 µM
same,SI (TGI),"NSC lung cancer; NSCL cancer, MG_MID60/subpanel MG_MID",0.78
same,GI50,"Melanoma; Homo sapiens, Melanoma subpanel, five-dose, read-out: GI50 MG_MID",1.56 µM
same,CC50,"Melanoma; Homo sapiens, Melanoma subpanel, five-dose, read-out: LC50 MG_MID",25.1 µM
same,TGI MG_MID,"Melanoma; Melanoma subpanel, five-dose",3.66 µM
same,SI (TGI),"Melanoma; Melanoma, MG_MID60/subpanel MG_MID",1.45
same,GI50,"Prostate cancer; Homo sapiens, Prostate cancer subpanel, five-dose, read-out: GI50 MG_MID",1.79 µM
same,CC50,"Prostate cancer; Homo sapiens, Prostate cancer subpanel, five-dose, read-out: LC50 MG_MID",9.23 µM
same,SI (TGI),"Prostate cancer; Prostate cancer, MG_MID60/subpanel MG_MID",0.89
same,TGI MG_MID,"Colon Cancer; Colon Cancer subpanel, five-dose",4.00 µM
same,SI (TGI),"Colon Cancer; Colon Cancer, MG_MID60/subpanel MG_MID",1.32
same,GI50,"Colon Cancer; Homo sapiens, Colon Cancer subpanel, five-dose, read-out: GI50 MG_MID",1.81 µM
same,CC50,"Colon Cancer; Homo sapiens, Colon Cancer subpanel, five-dose, read-out: LC50 MG_MID",33.7 µM
same,TGI MG_MID,"Breast cancer; Breast cancer subpanel, five-dose",5.37 µM
same,SI (TGI),"Breast cancer; Breast cancer, MG_MID60/subpanel MG_MID",0.98
same,GI50,"Breast cancer; Homo sapiens, Breast cancer subpanel, five-dose, read-out: GI50 MG_MID",1.91 µM
same,CC50,"Breast cancer; Homo sapiens, Breast cancer subpanel, five-dose, read-out: LC50 MG_MID",36.9 µM
same,GI50,"Renal Cancer; Homo sapiens, Renal cancer subpanel, five-dose, read-out: GI50 MG_MID",1.97 µM
same,LC50 (50% net cell kill),"Renal Cancer; Homo sapiens, Renal cancer subpanel, five-dose, read-out: LC50 MG_MID",21.3 µM
same,SI (TGI),"Renal Cancer; Renal Cancer, MG_MID60/subpanel MG_MID",0.95
same,TGI MG_MID,"Renal Cancer; Renal cancer subpanel, five-dose",5.57 µM
same,GI50,HCT-15; Homo sapiens,1.66 µM
same,CC50,HCT-15; [1],6.41 µM
same,TGI,HCT-15,3.26 µM
same,GI50,"IGROV1; Homo sapiens, IGROV-1, five-dose",1.89 µM
same,CC50,"IGROV1; Homo sapiens, IGROV-1, five-dose, read-out: LC50 (the source's name)",7.94 µM
same,TGI,IGROV1; five-dose,3.87 µM
same,GI50,SF-295; Homo sapiens,1.63 µM
same,CC50,SF-295; [1],5.7 µM
same,TGI,SF-295,3.05 µM
same,GI50,UO-31; Homo sapiens,1.36 µM
same,CC50,UO-31; [1],5.19 µM
same,TGI,UO-31,2.65 µM
same,GI50,SNB-19; Homo sapiens,1.79 µM
same,CC50,SNB-19; [1],7.82 µM
same,TGI,SNB-19,3.74 µM
same,Growth %,HL-60(TB); [2],−38.20%
same,cell death,HL-60(TB); [2],38.20%
same,TGI,"HL-60(TB); HL-60(TB), five-dose",8.97 µM
same,GI50,"HL-60(TB); Homo sapiens, HL-60(TB), five-dose",2.78 µM
same,CC50,"HL-60(TB); Homo sapiens, HL-60(TB), five-dose, read-out: LC50 (the source's name)",> 100 µM
same,GI50,SK-OV-3; Homo sapiens,2.7 µM
same,CC50,SK-OV-3; [1],90.1 µM
same,TGI,SK-OV-3,9.02 µM
same,GI50,HOP-62; Homo sapiens,2.43 µM
same,LC50,HOP-62; Homo sapiens,> 100 µM
same,TGI,HOP-62,5.86 µM
same,GI50,UACC-257; Homo sapiens,2.21 µM
same,CC50,UACC-257; [1],> 100 µM
same,TGI,UACC-257,5.95 µM
same,GI50,SK-MEL-2; Homo sapiens,2.12 µM
same,CC50,SK-MEL-2; [1],65.5 µM
same,TGI,SK-MEL-2,4.76 µM
same,GI50,PC-3; Homo sapiens,1.49 µM
same,CC50,PC-3; [1],9.92 µM
same,TGI,PC-3,3.85 µM
same,GI50,HCT-116; Homo sapiens,1.69 µM
same,CC50,HCT-116; [1],7.43 µM
same,TGI,HCT-116,3.55 µM
